Assay results: US7528235B2, “Multi-functional antibodies” (The Regents of the Univarsity of California, priority 2003, dated 2009)

What was measured:
[1] = tested on: 2D12.5; assay: relative binding curves of 2D12.5 for Y-DOTA isomers and Y-DOTA molecules with different sidechain locations; parameters: species or system murine; settings: for relative binding affinity, different sidechain locations: Y-DOTA molecules, FIG. 17; for relative binding affinity, Y-DOTA isomers: coordinated metal Y^3+, FIG. 16
From the text: FIG. 16 is a graphical display showing the relative binding curves of 2D12.5 for Y-DOTA isomers and Y-DTPA. 2D12.5 binds both the (R)- and (S)-isomers of 2-(4-nitrobenzyl)-DOTA when the coordinated metal is Y^3+ (the same behavior is expected for the other rare earths). The (S)-isomer confers Λ-helicity, while the (R)-isomer confers Δ-helicity to the acetate arms. […] Y-DOTA (no-sidearm) exists is solution as a racemic mixture of the coordination isomers.
FIG. 17 is a graphical display showing the relative binding curves of Y-DOTA molecules with different sidechain locations. […] Evaluation of the crystal structure seems to indicate that shorter substitutions at this position may bind with higher affinity. Substitutions at other locations may yield reasonably high affinitites as well. The (5-Amino-2-methoxy-phenyl)-carboxymethyl)-DOTA analyzed in this experiment was racemic, so it is not clear which isomer binds with higher affinity. The low pKa of the carboxymethyl proton makes it difficult to prepare a chirally pure molecule.

[2] = tested on: antibody 2D12.5; assay: competitive immunoassay (ELISA) of metal-DOTA complexes against immobilized Y-DOTA; format: binding, murine; settings: 37° C., DOTA analog [S]-2-(p-nitrobenzyl)-DOTA
From the text: FIG. 13 is graphical display showing the relative binding of metal-DOTA complexes to antibody 2D12.5. A representative set of competitive binding curves obtained from ELISA experiments described in Example 3 below. Error bars (representing the standard error of the mean) are shown, but are generally smaller than the data points.
Elements plotted in the order Sc (open circle), Lu, Yb, Tm, Er, Ho, Y (open diamond), Dy, Tb, Gd, Eu, Sm, Nd, Pr, Ce, La. ΔΔG values relative to Y-DOTA, set at 0. Error bars represent standard error of the mean.
To determine the metal selectivity of the antibody 2D12.5, a competitive immunoassays was used to measure the binding constants of multiple metal-DOTA complexes relative to Y^3+-DOTA.
We examined the monoclonal antibody 2D12.5, initially developed to bind specifically to Y-DOTA for targeted radiotherapy (see, e.g., Goodwin et al., i Cancer Res. 54: 5937-5946 (1994)), in order to determine the scope of its activity. To assess the metal selectivity of antibody 2D12.5, a competitive immunoassay to measure the binding constants of various metal-DOTA complexes relative to the original Y^3+ complex was developed (FIG. 12). Briefly, 2D12.5 was incubated at 37° C. in the presence of immobilized Y-DOTA and a soluble metal-DOTA competitor. […] Binding was measured by standard methods known to those of skill in the art. […]

[3] = tested on: (S) nitrobenzyl-DOTA chelates; settings: for (S) nitrobenzyl-DOTA chelates; cited from earlier work
[4] = tested on: Janus-DOTA; settings: for Janus-DOTA, a bivalent form of DOTA; cited from earlier work
[5] = 24 hours after administration of the bound complex; cited from earlier work

O=C(O)CN1CCN(CC(=O)O)CCN(CC(=O)O)[C@@H](Cc2ccc([N+](=O)[O-])cc2)CN(CC(=O)O)CC1 (single isomer, unassigned) [(S)-isomer]
relative binding affinity, different sidechain locations [1]: clearly stronger
relative binding affinity, Y-DOTA isomers [1]: preferred isomer for binding

O=C(O)CN1CCN(CC(=O)O)CCN(CC(=O)O)C(Cc2ccc([N+](=O)[O-])cc2)CN(CC(=O)O)CC1 (single isomer, unassigned; isomer 2) [(R)-isomer, 2-(4-nitrobenzyl)-DOTA]
relative binding affinity, Y-DOTA isomers [1]: affinity decreases less than an order of magnitude

(5-Amino-2-methoxy-phenyl)-carboxymethyl)-DOTA
relative binding affinity, different sidechain locations [1]: still sufficiently strong

Gd-DOTA
binding strength relative to the original Y^3+ complex (in words) [2]: bind more tightly than the original Y^3+ complex
binding strength relative to the original Y^3+ complex (in words) ([2]; listed as Gd^3+): strongest binders

B1: 2D12.5: anti-chelate monoclonal antibody that binds metal chelates of DOTA and similar structures (antibody, listed as Mus musculus, V domains shown)
VH: QVKLQESGPGLVQPSQSLSITCTVSGFSLTDYGVHWVRQSPGKGLEWLGVIWSGGGTAYTAAFISRLNIYKDNSKNQVFFEMNSLQANDTAMYYCARRGSYPYNYFDVWGQGTTVTVSS
VL: QAVVTQESALTTSPGETVTLTCRSSTGAVTTSNYANWVQEKPDHLFTGLIGGNNNRPPGVPARFSGSLIGDKAALTIAGTQTEDEAIYFCALWYSNHWVFGGGTRLTVLG
modifications: murine monoclonal antibody 2D12.5 heavy chain variable domain (VH); murine monoclonal antibody 2D12.5 light chain variable domain (VL)
binding constant Ks [3]: ≈ 10^8
binding constant Ks [4]: ≈ 10^8
2D12.5 bound to metal chelates present [5]: 74-96%
